These compounds were tested against T1, acetylcholine muscarinic M1 receptor (Homo sapiens, UniProt P11229) (assay: M1 FLIPR assay: intracellular calcium, potentiation of acetylcholine EC20). Conditions: M1 activity in a FLIPR assay; Table 3, Examples 1-12; read-out: M1 Potential.
T1 construct: expressed in transfected cells; host or cells: CHOnfat (CHO cells; also called CHOK1/hM1)
T1 sequence (P11229 1-460): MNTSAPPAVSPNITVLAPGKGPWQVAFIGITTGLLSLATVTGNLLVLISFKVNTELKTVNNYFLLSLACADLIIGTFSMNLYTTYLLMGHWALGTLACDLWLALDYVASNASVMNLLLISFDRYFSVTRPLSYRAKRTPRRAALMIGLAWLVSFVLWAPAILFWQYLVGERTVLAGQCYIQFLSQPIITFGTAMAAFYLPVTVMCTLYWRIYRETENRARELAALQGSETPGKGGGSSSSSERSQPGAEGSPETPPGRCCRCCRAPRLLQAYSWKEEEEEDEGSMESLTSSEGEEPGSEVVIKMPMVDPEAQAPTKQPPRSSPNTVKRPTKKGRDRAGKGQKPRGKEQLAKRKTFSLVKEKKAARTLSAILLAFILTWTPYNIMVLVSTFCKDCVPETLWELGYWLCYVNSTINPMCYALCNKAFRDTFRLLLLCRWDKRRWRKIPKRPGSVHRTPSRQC
Assay type: cell-based
Protocol: The assay studies the effect of one or several concentrations of test compounds on basal or acetylcholine-stimulated Ca^2+ levels using FLIPR.
For each compounds of the invention that was evaluated, the compound is prepared and subjected to a pre-incubation period of four minutes. Thereafter, a single EC20 concentration of acetylcholine is added to each well (3 nM final). The intracellular Ca^2+ level of each sample is measured and compared to an acetylcholine control to determine any modulatory activity.
Cells: CHOnfat/hM1, hM2, hM3 or hM4 cells are plated 24 hours before the assay at a density of 18,000 cells/well (100 μL) in a 384 well plate. CHOnfat/hM1 and CHOnfat/hM3 Growth Medium: 90% DMEM (Hi Glucose); 10% HI FBS; 2 mM L-glutamine; 0.1 mM NEAA; Pen-Strep; and 1 mg/ml Geneticin, are added. For M2Gqi5CHOnfat and M4Gqi5CHOnfat cells, an additional 600 μg/ml hygromycin is added.
Dye Loading Buffer: Assay Buffer plus 1% Fetal Bovine Serum and Fluo-4AM/Pluronic Acid Mixture. […] 20% Pluronic acid solution stock, with a concentration of 0.04% in Buffer, 0.02% in Assay. 65 μL of 2 mM Fluo-4AM are mixed with 130 μL of 20% pluronic acid. The resulting solution and 650 μL FBS is added to the assay buffer for a total volume of 65 mL.
Positive Controls: 4-Br-A23187: 10 mM in DMSO, final concentration 10 μM. Acetylcholine: […], working stock at both 20 μM and 30 μM in assay buffer, final concentration of 10 μM. This is used to check the maximum stimulation of the CHOK1/hM1 cells. 20 μM (2×) acetylcholine is added in the preincubation part of the assay, and the 30 μM (3×) stock is added in the second part. (EC20)Acetylcholine: 10 mM in water, working stock of 9 nM (3×), and final concentration in assay is 3 nM. This is used after the preincubation with test compounds. Addition of the EC20 Acetylcholine to each well with a test compound will ascertain any modulator activity. 24 wells contain 3 nM Acetylcholine alone as a control.
Four 96-well plates are combined into a 384-well plate using Mosquito Nanoliter Pipetting System by transferring 1 μl of serial diluted compounds to each well, and 1 mM acetylcholine (100× stock concentration) were added as a control. Using Temo, 49 μl assay buffer is added to each well of the 384-well plate right before assay.
In a 96-well Whatman 2 ml Uniplate, 9 nM Acetylcholine (3×) is pipetted into wells corresponding to the screening compounds, and into control wells. The 30 μM acetylcholine control (3×) is added into control wells, and the 3× agonist plate is transferred into a 384 well plate.
Cells are washed three times with 100 μL of buffer, leaving 30 μL of buffer in each well. Using Multimek, 30 μL of Dye Loading Buffer is added into each well and incubated at 37° C., 5% CO2 for up to one hour.
After 60 minutes, the cells are washed three times with 100 μL of buffer, leaving 30 μL of buffer in each well. The cell plate, screening plate, and agonist addition plates are placed on the platform in the FLIPR and the door closed. A signal test to check background fluorescence and basal fluorescence signal is performed. Laser intensity is adjusted if necessary.
Four minutes of pre-incubation with the test compounds is provided to determine any agonist activity on the M1 receptor by comparison to the […] acetylcholine control. After pre-incubation, the EC20 value of acetylcholine (3 nM final) is added to determine any modulator activity.

SMILES | EC50
COc1ccc(Cc2cc(C(=O)O)c(OC)c3ccccc23)cc1 [Example 1, 1-Methoxy-4-(4-methoxybenzyl)-2-naphthoic acid] | 3320 nM
COc1c(C(=O)O)cc(Cc2ccc(-n3cccn3)cc2)c2ccccc12 [Example 2, 1-Methoxy-4-[4-(1H-pyrazol-1-yl)benzyl]-2-naphthoic acid] | 574 nM
COc1c(C(=O)N[C@H]2CCCC[C@@H]2O)cc(Cc2ccc(Cl)nc2)c2ccccc12 [Example 3, 4-[(6-Chloropyridin-3-yl)methyl]-N-[(1S,2S)-2-hydroxycyclohexyl]-1-methoxy-2-naphthamide] | 260 nM
COc1c(C(=O)N[C@H]2CCCC[C@@H]2O)cc(Cc2ccc(C)nc2)c2ccccc12 [Example 4] | 121 nM
COc1c(C(=O)N[C@H]2CCCC[C@@H]2O)cc(Cc2ccc(-c3cnn(C)c3)nc2)c2ccccc12 [Example 5, N-[(1S,2S)-2-Hydroxycyclohexyl]-1-methoxy-4-{[6-(1-methyl-1H-pyrazol-4-yl)pyridine-3-yl]methyl}-2-naphthamide] | 17 nM
O=C(N[C@H]1CCCC[C@@H]1O)c1cc(Cc2ccc(-n3cccn3)nc2)c2ccccc2c1O [Example 6, 1-Hydroxy-N-[(1S,2S)-2-hydroxycyclohexyl]-4-{[6-(1H-pyrazol-1-yl)pyridine-3-yl]methyl}-2-naphthamide] | 4710 nM
COc1c(C(=O)N[C@H]2CCCC[C@@H]2O)cc(Cc2ccc(-n3cccn3)nc2)c2ccccc12 [Example 7, N-[(1S,2S)-2-Hydroxycyclohexyl]-1-methoxy-4-{[6-(1H-pyrazol-1-yl)pyridine-3-yl]methyl}-2-naphthamide] | 82 nM
COc1c(C(=O)N[C@H]2CCCC[C@@H]2O)cc(CN2CCN(c3cnn(C)c3)CC2)c2ccccc12 [Example 8, N-[(1S,2S)-2-Hydroxycyclohexyl]-1-methoxy-4-{[4-(1-methyl-1H-pyrazol-4-yl)piperazin-1-yl]methyl}-2-naphthamide] | 3880 nM
CCc1ccc(Cc2cc(C(=O)N[C@H]3CCCC[C@@H]3O)c(OC)c3ccccc23)cn1 [Example 9, N-[(1S,2S)-2-Hydroxycyclohexyl]-1-methoxy-4-[(6-ethylpyridin-3-yl)methyl]-2-naphthamide] | 190 nM
COc1c(C(=O)N[C@H]2CCOC[C@@H]2O)cc(Cc2ccc(Cl)nc2)c2ccccc12 [Example 10, 4-[(6-Chloropyridin-3-yl)methyl]-N-[(3R,4S)-3-hydroxytetrahydro-2H-pyran-4-yl]-1-methoxy-2-naphthamide] | 56 nM
COc1c(C(=O)N[C@H]2CCCC[C@@H]2O)cc(Cc2ccnc(SC)c2)c2ccccc12 [Example 11, N-[(1S,2S)-2-Hydroxycyclohexyl]-1-methoxy-4-{[2-(methylthio)pyridin-4-yl]methyl}-2-naphthamide] | 281 nM
CCOc1c(C(=O)N[C@H]2CCCC[C@@H]2O)cc(Cc2ccc(Cl)nc2)c2ccccc12 [Example 12] | 985 nM

Same assay, conditions: inflection point value from FLIPR assay; CHOnfat/hM1 cells; 4 min pre-incubation, then acetylcholine EC20 (3 nM final); Table 1, Formula (III); read-out: M1 IP Value

SMILES | EC50
COc1c(C(=O)O)cc(Cc2ccc(-c3ccccc3)cc2)c2ccccc12 [Compound 1-1] | 872 nM
COc1c(C(=O)O)cc(Cc2ccc(NC(C)=O)cc2)c2ccccc12 [Compound 1-2] | 1550 nM
COc1c(C(=O)N[C@H]2CCCC[C@@H]2O)cc(Cc2ccc(-c3cccnc3)nc2)c2ccccc12 [Compound 1-3] | 24 nM
COc1ccc(Cc2cc(C(=O)N[C@H]3CCCC[C@@H]3O)c(OC)c3ccccc23)cn1 [Compound 1-7] | 280 nM
COc1c(C(=O)N[C@H]2CCCC[C@@H]2O)cc(Cc2ccc(SC)nc2)c2ccccc12 [Compound 1-9] | 169 nM
COc1c(C(=O)N[C@H]2CCCC[C@@H]2O)cc(Cc2ccnc(C)c2)c2ccccc12 [Compound 1-11] | 224 nM
COc1cc(Cc2cc(C(=O)N[C@H]3CCCC[C@@H]3O)c(OC)c3ccccc23)ccn1 [Compound 1-12] | 140 nM
COc1c(C(=O)N[C@H]2CCOC[C@@H]2O)cc(Cc2ccc(C)nc2)c2ccccc12 [Compound 1-13] | 87 nM
COc1c(C(=O)N[C@H]2CCOC[C@@H]2O)cc(Cc2ccc(-c3ccnc(C)c3)nc2)c2ccccc12 [Compound 1-14] | 6.8 nM
COc1c(C(=O)N[C@H]2CCOC[C@@H]2O)cc(Cc2ccc(-c3ccc(C)nc3)nc2)c2ccccc12 [Compound 1-15] | 22 nM

Same assay, conditions: inflection point value from FLIPR assay; CHOnfat/hM1 cells; 4 min pre-incubation, then acetylcholine EC20 (3 nM final); Table 2, Formula (IV); read-out: M1 IP Value

SMILES | EC50
C=CCOc1c(C(=O)N[C@H]2CCCC[C@@H]2O)cc(Cc2ccc(Cl)nc2)c2ccccc12 [Compound 2-2] | 1140 nM
